The results in this text go back to patent publication US9796711B2, “Substituted pyrazolo[3,4-b]pyridin-6-carboxylic acids and method of use” (AbbVie S.àr.l., priority 2015, dated 2017).

One may read the EC50 as the concentration that produces a half-maximal response.

The target in assay [1] is T1, ΔF508-CFTR (Homo sapiens, UniProt P13569, DEL508-508).
T1 construct: host or cells: CFBE41o-, doxycycline-inducible
The assay is described as follows: CFTR cell surface levels using HRP-tagged ΔF508-CFTR expressing CFBE cells, in the presence of a co-corrector. The settings on record: HRP-tagged ΔF508-CFTR expressing CFBE cells, in the presence of 3 μM co-corrector; for EC50: read-out: EC50. Type of assay: cell-based. The essentials:
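Cells were seeded with 0.5 μg/mL doxycycline and held 68 h at 37 °C. Test compounds plus 3 μM co-corrector (final 0.1% DMSO) were then added for 20 h at 33 °C. Washed cells received HRP substrate, and luminescence was normalized between DMSO and 3 μM co-corrector controls.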

The target of assay [2] is T1, ΔF508-CFTR. The assay is described as follows: CFTR cell surface levels using HRP-tagged ΔF508-CFTR expressing CFBE cells, intrinsic corrector capacity. Type of assay: cell-based. The settings on record: for EC50: read-out: EC50. The essentials:
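Here the cells express ΔF508-CFTR with horseradish peroxidase inserted in extracellular loop 4, so only rescued channel at the surface gives luminescent signal. Compounds act on their own, 20 h at the reduced temperature of 33 °C; values are percent activity relative to DMSO and a 3 μM corrector.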

The mark [3] stands for this setting: HRP-tagged ΔF508-CFTR CFBE41o- cells, compounds alone (intrinsic corrector capacity), 20 hours at 33° C., positive control 3 μM corrector.
Where [4] appears, read: HRP-tagged ΔF508-CFTR CFBE41o- cells, compounds alone (intrinsic corrector capacity), 20 hours at 33° C.
The mark [5] stands for this setting: HRP-tagged ΔF508-CFTR expressing CFBE cells, intrinsic corrector capacity (no co-corrector), 33° C., 20 hours.

T1 sequence (P13569 with tags, fused parts or gaps DEL508-508): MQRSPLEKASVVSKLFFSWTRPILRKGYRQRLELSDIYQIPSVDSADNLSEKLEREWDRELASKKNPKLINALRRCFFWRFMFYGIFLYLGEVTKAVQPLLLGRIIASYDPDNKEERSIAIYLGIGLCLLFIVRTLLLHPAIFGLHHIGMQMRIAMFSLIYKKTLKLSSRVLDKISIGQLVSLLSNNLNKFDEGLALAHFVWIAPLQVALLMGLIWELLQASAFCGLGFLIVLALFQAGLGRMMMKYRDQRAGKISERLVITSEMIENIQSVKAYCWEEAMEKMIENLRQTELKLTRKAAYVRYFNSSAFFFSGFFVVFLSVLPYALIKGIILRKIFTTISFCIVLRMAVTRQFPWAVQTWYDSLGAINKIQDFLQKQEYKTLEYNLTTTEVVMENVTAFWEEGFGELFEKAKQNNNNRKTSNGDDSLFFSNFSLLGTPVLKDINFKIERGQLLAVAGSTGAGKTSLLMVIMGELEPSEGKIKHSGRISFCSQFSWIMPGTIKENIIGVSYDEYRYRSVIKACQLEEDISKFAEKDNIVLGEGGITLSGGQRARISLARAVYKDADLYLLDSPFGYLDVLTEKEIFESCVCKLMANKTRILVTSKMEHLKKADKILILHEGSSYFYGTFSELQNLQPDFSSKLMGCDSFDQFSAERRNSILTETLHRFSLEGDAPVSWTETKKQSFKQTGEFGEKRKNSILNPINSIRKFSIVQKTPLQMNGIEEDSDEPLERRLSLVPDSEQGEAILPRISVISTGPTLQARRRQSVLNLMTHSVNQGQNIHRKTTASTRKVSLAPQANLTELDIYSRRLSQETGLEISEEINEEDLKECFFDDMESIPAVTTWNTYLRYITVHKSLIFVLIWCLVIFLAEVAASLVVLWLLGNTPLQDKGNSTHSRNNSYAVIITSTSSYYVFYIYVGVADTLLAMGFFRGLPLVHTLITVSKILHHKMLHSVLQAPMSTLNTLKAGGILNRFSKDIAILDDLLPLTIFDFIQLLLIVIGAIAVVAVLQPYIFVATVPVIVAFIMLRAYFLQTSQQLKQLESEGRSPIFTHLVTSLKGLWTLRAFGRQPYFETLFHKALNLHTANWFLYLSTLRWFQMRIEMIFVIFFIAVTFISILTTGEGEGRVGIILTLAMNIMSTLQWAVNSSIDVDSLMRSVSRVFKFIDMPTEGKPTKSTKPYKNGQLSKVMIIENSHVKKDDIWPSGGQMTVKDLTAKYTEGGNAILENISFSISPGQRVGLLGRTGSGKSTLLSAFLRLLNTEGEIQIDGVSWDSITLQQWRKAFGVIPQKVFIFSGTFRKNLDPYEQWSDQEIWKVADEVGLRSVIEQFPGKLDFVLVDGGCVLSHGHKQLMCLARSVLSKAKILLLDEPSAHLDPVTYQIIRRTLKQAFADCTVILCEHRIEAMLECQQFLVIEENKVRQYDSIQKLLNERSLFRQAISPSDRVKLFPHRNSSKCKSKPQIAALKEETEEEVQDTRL

Take `CC(C)c1nn(C2CCCCC2)c2nc(C(=O)O)cc(-c3ccc4c(c3)CNC4=O)c12` [compound 364, 1-cyclohexyl-4-(1-oxo-2,3-dihydro-1H-isoindol-5-yl)-3-(propan-2-yl)-1H-pyrazolo[3,4-b]pyridine-6-carboxylic acid]: the “% Activation” value on ΔF508-CFTR [1] amounted to 282.3%; on ΔF508-CFTR [2] (setting [3]), 118.28%. Moreover, the EC50 on ΔF508-CFTR [1] is 1640 nM; on ΔF508-CFTR [2] (setting [4]), 2280 nM.
On to `O=C(O)c1cc(O[C@H]2CCOC2)c2c(C3CCC3)nn(-c3ccccc3)c2n1` [compound 583], for which the “% Activation” value at ΔF508-CFTR [1] is reported as 287.75%; at ΔF508-CFTR [2] (setting [5]), 134.7%. In addition, the EC50 stood at 460 nM at ΔF508-CFTR [1] and 1020 nM on ΔF508-CFTR [2] (setting [5]).
Consider `CCOCC1(F)CCCN(c2cc(C(=O)O)nc3c2c(C2CCC2)nn3-c2ccccc2)C1` (stereo not drawn) [compound 460, 3-cyclobutyl-4-[3-(ethoxymethyl)-3-fluoropiperidin-1-yl]-1-phenyl-1H-pyrazolo[3,4-b]pyridine-6-carboxylic acid], for which, at ΔF508-CFTR [1], the “% Activation” value is 322.2% and the EC50 was determined as 328 nM. Besides, on ΔF508-CFTR [2] (setting [5]), the “% Activation” value was determined as 138.15% and the EC50 came to 642 nM.
`COc1cccc(-n2nc(C)c3c(-c4ccc(N5CCN(CC#N)CC5)cc4)cc(C(=O)O)nc32)c1` [compound 232, 4-{4-[4-(cyanomethyl)piperazin-1-yl]phenyl}-1-(3-methoxyphenyl)-3-methyl-1H-pyrazolo[3,4-b]pyridine-6-carboxylic acid]: the figures for the “% Activation” value on ΔF508-CFTR [1] and at ΔF508-CFTR [2] (setting [3]) were 380.95% and 215.6%, respectively. In addition, the values for the EC50 at ΔF508-CFTR [1] and on ΔF508-CFTR [2] (setting [4]) were 1280 nM and 1680 nM, respectively.
Turning to `CC1(C)OC[C@@H](COc2cc(C(=O)O)nc3c2c(C2CCC2)nn3-c2ccccc2)O1` [compound 618, 3-cyclobutyl-4-{[(4R)-2,2-dimethyl-1,3-dioxolan-4-yl]methoxy}-1-phenyl-1H-pyrazolo[3,4-b]pyridine-6-carboxylic acid], on ΔF508-CFTR [1], the “% Activation” value is 315.25% and the EC50 was found to be 351 nM. Moreover, on ΔF508-CFTR [2] (setting [5]), the “% Activation” value worked out at 105.9% and the EC50 was 547 nM.
Consider `Cc1nn(-c2ccccc2)c2nc(C(=O)O)cc(-c3ccc(N4CCC5(CC4)COC5)cc3)c12` [compound 154, 3-methyl-4-[4-(2-oxa-7-azaspiro[3.5]nonan-7-yl)phenyl]-1-phenyl-1H-pyrazolo[3,4-b]pyridine-6-carboxylic acid], for which the results for the “% Activation” value at ΔF508-CFTR [1] and at ΔF508-CFTR [2] (setting [3]) were 353.7% and 153.9%, respectively. Also, the results for the EC50 at ΔF508-CFTR [1] and on ΔF508-CFTR [2] (setting [4]) were 748 nM and 918 nM, respectively.
With `CC(C)Oc1nn(C2CCCCC2)c2nc(C(=O)O)cc(-c3ccc(C(=O)N4CCC(N(C)C)CC4)cc3)c12` [compound 861, 1-cyclohexyl-4-{4-[4-(dimethylamino)piperidine-1-carbonyl]phenyl}-3-[(propan-2-yl)oxy]-1H-pyrazolo[3,4-b]pyridine-6-carboxylic acid], the “% Activation” value on ΔF508-CFTR [1] is given as 155.4%; on ΔF508-CFTR [2] (setting [5]), 31.08%.
On to `CO[C@H]1CC[C@H](Oc2cc(C(=O)O)nc3c2c(C2CCC2)nn3-c2ccccc2)CC1` [compound 429, 3-cyclobutyl-4-[(trans-4-methoxycyclohexyl)oxy]-1-phenyl-1H-pyrazolo[3,4-b]pyridine-6-carboxylic acid], for which, on ΔF508-CFTR [1], the “% Activation” value is reported as 268.2% and the EC50 worked out at 370 nM. Moreover, on ΔF508-CFTR [2] (setting [5]), the “% Activation” value is 114.95% and the EC50 is 979 nM.
For `CCOCC1(F)CCN(c2cc(C(=O)O)nc3c2c(C2CCC2)nn3-c2ccccc2)C1` (stereo not drawn) [compound 510, 3-cyclobutyl-4-[3-(ethoxymethyl)-3-fluoropyrrolidin-1-yl]-1-phenyl-1H-pyrazolo[3,4-b]pyridine-6-carboxylic acid] the same measures were 313.2%, 397 nM, 99.8% and 1110 nM.
For `N#CC1CCN(c2ccc(-c3cc(C(=O)O)nc4c3c(C3CCC3)nn4C3CCCCC3)cc2)CC1` [compound 219, 4-[4-(4-cyanopiperidin-1-yl)phenyl]-3-cyclobutyl-1-cyclohexyl-1H-pyrazolo[3,4-b]pyridine-6-carboxylic acid], the entries for the “% Activation” value at ΔF508-CFTR [1] and on ΔF508-CFTR [2] (setting [3]) were 474.5% and 248.7%, respectively. The EC50 on ΔF508-CFTR [1] was found to be 365 nM; at ΔF508-CFTR [2] (setting [4]), 518 nM.
For `CS(=O)(=O)C1CCN(c2cc(C(=O)O)nc3c2c(C2CCC2)nn3-c2ccccc2)CC1` [compound 411, 3-cyclobutyl-4-[4-(methanesulfonyl)piperidin-1-yl]-1-phenyl-1H-pyrazolo[3,4-b]pyridine-6-carboxylic acid], on ΔF508-CFTR [1], the “% Activation” value turned out to be 456% and the EC50 amounted to 976 nM. At ΔF508-CFTR [2] (setting [5]), the “% Activation” value was found to be 280.85% and the EC50 worked out at 3340 nM.
As to `Cc1nn(-c2ccccc2)c2nc(C(=O)O)cc(N3CC4CNCCN4C3=O)c12` (stereo not drawn) [compound 290, 3-methyl-4-(3-oxohexahydroimidazo[1,5-a]pyrazin-2(3H)-yl)-1-phenyl-1H-pyrazolo[3,4-b]pyridine-6-carboxylic acid], the figures for the “% Activation” value on ΔF508-CFTR [1] and at ΔF508-CFTR [2] (setting [3]) were 127.35% and 12.145%, respectively. Also, the EC50 on ΔF508-CFTR [1] and on ΔF508-CFTR [2] (setting [4]) was 7500 nM throughout.
With `Cc1cccc(-n2nc(C(C)C)c3c(N4CC5(CCOCC5)C4)cc(C(=O)O)nc32)c1` [compound 258, 1-(3-methylphenyl)-4-(7-oxa-2-azaspiro[3.5]nonan-2-yl)-3-(propan-2-yl)-1H-pyrazolo[3,4-b]pyridine-6-carboxylic acid], the entries for the “% Activation” value at ΔF508-CFTR [1] and at ΔF508-CFTR [2] (setting [3]) were 364.3% and 169.7%, respectively. The EC50 at ΔF508-CFTR [1] was found to be 919 nM; at ΔF508-CFTR [2] (setting [4]) it was 1290 nM.
With `O=C(O)c1cc(N2CCC(CN3CCC(F)(F)C3)CC2)c2c(C3CCC3)nn(-c3ccccc3)c2n1` [compound 828, 3-cyclobutyl-4-{4-[(3,3-difluoropyrrolidin-1-yl)methyl]piperidin-1-yl}-1-phenyl-1H-pyrazolo[3,4-b]pyridine-6-carboxylic acid], the “% Activation” value on ΔF508-CFTR [1] is reported as 518.35%; at ΔF508-CFTR [2] (setting [5]), 283.5%. Besides, the EC50 at ΔF508-CFTR [1] turned out to be 47.9 nM; on ΔF508-CFTR [2] (setting [5]), 83.2 nM.
`Cc1nn(-c2cccc(F)c2)c2nc(C(=O)O)cc(-c3ccc(N4CCOCC4)nc3)c12` [compound 101, 1-(3-fluorophenyl)-3-methyl-4[6-(morpholin-4-yl)pyridin-3-yl]-1H-pyrazolo[3,4-b]pyridine-6-carboxylic acid]: the “% Activation” value was found to be 331.65% at ΔF508-CFTR [1] and 143.75% on ΔF508-CFTR [2] (setting [3]). For the same molecule, the figures for the EC50 on ΔF508-CFTR [1] and on ΔF508-CFTR [2] (setting [4]) were 999 nM and 1610 nM, respectively.
As to `CC(C)c1nn(-c2ccc(F)cc2)c2nc(C(=O)O)cc(N3CCC4(CCCO4)CC3)c12` [compound 401, 1-(4-fluorophenyl)-4-(1-oxa-8-azaspiro[4.5]decan-8-yl)-3-(propan-2-yl)-1H-pyrazolo[3,4-b]pyridine-6-carboxylic acid], on ΔF508-CFTR [1], the “% Activation” value was found to be 306.07% and the EC50 was determined as 653 nM. Also, at ΔF508-CFTR [2] (setting [5]), the “% Activation” value was determined as 136.97% and the EC50 turned out to be 1100 nM.
On to `Cc1nn(-c2ccccc2)c2nc(C(=O)O)cc(-c3ccc(N4CC(O)C4)cc3)c12` [compound 124, 4-[4-(3-hydroxyazetidin-1-yl)phenyl]-3-methyl-1-phenyl-1H-pyrazolo[3,4-b]pyridine-6-carboxylic acid], for which the “% Activation” value amounted to 371.1% at ΔF508-CFTR [1] and 190.5% at ΔF508-CFTR [2] (setting [3]). Further, the EC50 on ΔF508-CFTR [1] is 1880 nM; on ΔF508-CFTR [2] (setting [4]) it was 3080 nM.
Consider `Cc1nn(C2CCCCC2)c2nc(C(=O)O)cc(-c3ccc(N(C)C)nc3)c12` [compound 99, 1-cyclohexyl-4-[6-(dimethylamino)pyridin-3-yl]-3-methyl-1H-pyrazolo[3,4-b]pyridine-6-carboxylic acid], for which the “% Activation” value on ΔF508-CFTR [1] was determined as 247.8%; on ΔF508-CFTR [2] (setting [3]) it was 80.69%. Besides, the EC50 at ΔF508-CFTR [1] came to 1100 nM; at ΔF508-CFTR [2] (setting [4]), 1530 nM.
In the case of `CC(C)c1nn(-c2ccc(F)cc2)c2nc(C(=O)O)cc(N3CCN(CCOCCO)CC3)c12` [compound 778, 1-(4-fluorophenyl)-4-{4-[2-(2-hydroxyethoxy)ethyl]piperazin-1-yl}-3-(propan-2-yl)-1H-pyrazolo[3,4-b]pyridine-6-carboxylic acid], on ΔF508-CFTR [1], the “% Activation” value was 149% and the EC50 came to 1670 nM. For the same molecule, at ΔF508-CFTR [2] (setting [5]), the “% Activation” value amounted to 9.442% and the EC50 was found to be 5000 nM.
For `CC(C)c1nn(-c2cccc(N3CCCC3)c2)c2nc(C(=O)O)cc(-c3ccc(N4CCC(C#N)CC4)cc3)c12` [compound 221, 4-[4-(4-cyanopiperidin-1-yl)phenyl]-3-(propan-2-yl)-1-[3-(pyrrolidin-1-yl)phenyl]-1H-pyrazolo[3,4-b]pyridine-6-carboxylic acid], the “% Activation” value on ΔF508-CFTR [1] is listed as 645.97%; on ΔF508-CFTR [2] (setting [3]), 429%. Also, the EC50 at ΔF508-CFTR [1] was 283 nM; at ΔF508-CFTR [2] (setting [4]) it was 315 nM.
